{"source": "paper PMC5438989", "about": "“Protein Biochemistry and Expression Regulation of Cadmium/Zinc Pumping ATPases in the Hyperaccumulator Plants Arabidopsis halleri and Noccaea caerulescens” (Frontiers in Plant Science, 2017)", "molecular_target": "T1, NcHMA4 (=TcHMA4) (Noccaea caerulescens, UniProt Q69AX6)", "T1 construct": "60-70 kD band on Western blot, so possibly processed; no added tag", "T1 sequence (Q69AX6 1-1186)": "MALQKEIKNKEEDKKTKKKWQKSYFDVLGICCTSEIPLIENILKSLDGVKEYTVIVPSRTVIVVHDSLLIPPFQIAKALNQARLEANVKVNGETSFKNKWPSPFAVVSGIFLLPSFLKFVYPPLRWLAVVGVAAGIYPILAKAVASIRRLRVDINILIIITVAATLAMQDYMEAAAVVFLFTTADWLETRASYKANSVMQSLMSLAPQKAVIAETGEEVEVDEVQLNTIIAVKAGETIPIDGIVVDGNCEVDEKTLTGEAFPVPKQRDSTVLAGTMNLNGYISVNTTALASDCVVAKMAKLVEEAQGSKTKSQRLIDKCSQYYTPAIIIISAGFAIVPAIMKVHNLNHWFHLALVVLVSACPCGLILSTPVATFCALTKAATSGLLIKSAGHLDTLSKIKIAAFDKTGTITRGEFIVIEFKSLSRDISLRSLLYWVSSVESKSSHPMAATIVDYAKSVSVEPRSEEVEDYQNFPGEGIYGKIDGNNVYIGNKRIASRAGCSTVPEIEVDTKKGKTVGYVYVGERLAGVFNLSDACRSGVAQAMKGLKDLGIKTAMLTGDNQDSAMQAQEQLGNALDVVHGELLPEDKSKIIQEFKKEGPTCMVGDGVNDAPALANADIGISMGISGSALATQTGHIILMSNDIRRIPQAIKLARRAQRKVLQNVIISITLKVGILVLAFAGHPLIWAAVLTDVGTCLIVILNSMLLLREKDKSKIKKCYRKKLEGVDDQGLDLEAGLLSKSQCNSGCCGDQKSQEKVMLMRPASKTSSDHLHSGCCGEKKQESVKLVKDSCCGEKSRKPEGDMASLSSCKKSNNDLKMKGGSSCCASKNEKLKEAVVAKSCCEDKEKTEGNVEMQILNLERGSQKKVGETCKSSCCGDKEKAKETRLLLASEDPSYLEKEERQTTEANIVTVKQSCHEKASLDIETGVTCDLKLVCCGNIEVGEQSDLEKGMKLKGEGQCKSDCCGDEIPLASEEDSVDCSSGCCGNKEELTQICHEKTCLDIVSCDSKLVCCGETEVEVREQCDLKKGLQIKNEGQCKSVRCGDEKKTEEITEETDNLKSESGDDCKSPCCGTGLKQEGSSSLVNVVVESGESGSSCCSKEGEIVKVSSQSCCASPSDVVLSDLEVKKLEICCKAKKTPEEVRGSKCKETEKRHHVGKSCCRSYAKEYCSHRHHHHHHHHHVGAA", "assay": "ATPase assay by phosphate release; F5 electrochromic dye fluorescence", "type": "biochemical", "settings": "Cd2+ or Zn2+ activated; dye assay: 5 mM ATP, protein in phosphatidylcholine vesicles, 20 °C", "data": [{"smiles": "Nc1ncnc2c1ncn2[C@@H]1O[C@H](COP(=O)(O)OP(=O)(O)OP(=O)(O)O)[C@@H](O)[C@H]1O", "note": "[ATP]", "values": [{"measurement": "ATPase assay by phosphate release; F5 electrochromic dye fluorescence", "result": "Addition of ATP caused dropping of fluorescence when added to an assay containing active enzyme"}]}]}
